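Cultured in 96-well plates, cells were exposed to test compound for 48 hours across five concentrations. Here, GI50 denotes the concentration required for 50% inhibition of growth.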 Active and inactive are the calls of the source. Rule as the data show it: active = GI50 up to about 1.1 µM and inactive = higher.
Assays:
Test in all cases: NCI tumour cell line growth inhibition, 48 h
A549 = system: A549
SK-MEL-2 = system: SK-MEL-2
CAKI-1 = system: CAKI-1
M14 = system: M14
MDA-N = system: MDA-N
SR = system: SR
NCI-H226 = system: NCI-H226
KM12 = system: KM12
IGROV-1 = system: IGROV-1
SF-268 = system: SF-268
Malme-3M = system: Malme-3M
SW-620 = system: SW-620
786-0 = system: 786-0
RXF 393 = system: RXF 393
MDA-MB-231 = system: MDA-MB-231
HOP-92 = system: HOP-92
LOX IMVI = system: LOX IMVI
SK-MEL-28 = system: SK-MEL-28
OVCAR-3 = system: OVCAR-3

Measured: GI50

CN1CCN(Cc2cc3c(nn2)-c2ccccc2C3=O)CC1
inactive: A549 > 100 µM | SK-MEL-2 > 100 µM | CAKI-1 > 100 µM | M14 31.2 µM | MDA-N 24.4 µM | SR 18.3 µM | NCI-H226 > 100 µM | KM12 59.2 µM | IGROV-1 38.5 µM | SF-268 > 100 µM | Malme-3M 19.1 µM | SW-620 52.7 µM | 786-0 40.6 µM | RXF 393 > 100 µM | MDA-MB-231 > 10 µM | HOP-92 > 100 µM

CC(SCc1ccccc1)C(=O)O (stereo not drawn)
inactive: LOX IMVI > 100 µM | A549 > 100 µM | SK-MEL-2 > 100 µM | CAKI-1 > 100 µM | M14 > 100 µM | MDA-N > 100 µM | SR > 100 µM | NCI-H226 > 100 µM | KM12 > 100 µM | IGROV-1 > 100 µM | SF-268 > 100 µM | SK-MEL-28 > 100 µM | Malme-3M > 100 µM | SW-620 > 100 µM | 786-0 > 100 µM | RXF 393 > 100 µM | OVCAR-3 > 100 µM | MDA-MB-231 > 100 µM | HOP-92 > 100 µM

CN(C)CCCN=C(N)N
inactive: LOX IMVI > 100 µM | A549 > 100 µM | SK-MEL-2 > 100 µM | CAKI-1 > 100 µM | M14 > 100 µM | MDA-N > 100 µM | SR > 100 µM | NCI-H226 > 100 µM | KM12 > 100 µM | IGROV-1 > 100 µM | SF-268 > 100 µM | SK-MEL-28 > 100 µM | Malme-3M > 100 µM | SW-620 > 100 µM | 786-0 > 100 µM | RXF 393 > 100 µM | OVCAR-3 > 100 µM | MDA-MB-231 > 100 µM | HOP-92 > 100 µM

Cc1cc(Cc2cc(C)cc(C(C)(C)C)c2O)c(O)c(Cc2cc(C)cc(C(C)(C)C)c2O)c1
inactive: LOX IMVI 3.1 µM | A549 3.06 µM | SK-MEL-2 2.16 µM | CAKI-1 4.08 µM | M14 2.64 µM | MDA-N 3.66 µM | SR 2.54 µM | NCI-H226 3.24 µM | KM12 2.91 µM | IGROV-1 3.25 µM | SF-268 1.7 µM | SK-MEL-28 4.14 µM | Malme-3M 2 µM | SW-620 3.34 µM | 786-0 3.15 µM | RXF 393 2.82 µM | OVCAR-3 2.69 µM | MDA-MB-231 1.79 µM | HOP-92 2.24 µM
